Source: patent US20250296959A1, “B7-H3 TARGETING PEPTIDES AND CONSTRUCTS THEREOF” (Mariana Oncology Inc., priority 2024, published 2025)
Starred links: 1 amine or outer side, 2 acyl side, 3 side chain; linkers in the order of their positions; H or OH if unused. Positions of bridges follow the written chain, without caps; N, C: chain ends. Non-standard residues stand in square brackets, D forms with d. Residues, ends and D or L forms follow the SMILES beside them. *: point of attachment. Ala(piperidin-4-yl) = O=C([C@H](CC1CCN([*:3])CC1)N[*:1])[*:2]; DOTA = O=C(O)CN1CCN(CC(=O)O)CCN(CC(=O)*)CCN(CC(=O)O)CC1; Trp(5-F) = N[C@@H](Cc1c[nH]c2ccc(F)cc12)C(=O)O; Phe(4-F) = N[C@@H](Cc1ccc(F)cc1)C(=O)O; AEF = NCCOc1ccc(C[C@H](N)C(=O)O)cc1; αMeY = C[C@](N)(Cc1ccc(O)cc1)C(=O)O; Val(3-OH) = CC(C)(O)[C@H](N)C(=O)O; Cha = N[C@@H](CC1CCCCC1)C(=O)O; hLeu = CC(C)CC[C@H](N)C(=O)O; hSer = N[C@@H](CCO)C(=O)O; Nle = CCCC[C@H](N)C(=O)O; Nva = CCC[C@H](N)C(=O)O; CH2 = C([*:1])[*:2]

Molecular target: T1, human 4lg B7-H3 (Homo sapiens, UniProt Q5ZPR3)
T1 sequence (Q5ZPR3 29-534): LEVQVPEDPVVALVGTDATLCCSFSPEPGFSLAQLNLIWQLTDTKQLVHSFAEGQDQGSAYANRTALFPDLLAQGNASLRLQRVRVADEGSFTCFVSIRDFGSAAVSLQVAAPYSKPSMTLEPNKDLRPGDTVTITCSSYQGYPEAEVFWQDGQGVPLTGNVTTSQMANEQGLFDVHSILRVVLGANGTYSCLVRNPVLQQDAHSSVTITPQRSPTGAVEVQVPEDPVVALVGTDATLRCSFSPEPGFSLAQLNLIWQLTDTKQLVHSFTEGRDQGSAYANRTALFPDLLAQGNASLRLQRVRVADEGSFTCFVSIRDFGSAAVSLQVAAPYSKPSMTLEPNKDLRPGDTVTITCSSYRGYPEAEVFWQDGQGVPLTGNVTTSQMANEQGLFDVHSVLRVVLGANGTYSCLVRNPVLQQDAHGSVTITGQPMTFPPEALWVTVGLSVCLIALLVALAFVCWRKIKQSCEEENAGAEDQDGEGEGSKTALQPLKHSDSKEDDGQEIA
Assay: Affinity determination by surface plasmon resonance (SPR) to 4Ig B7-H3
Settings: SPR KD—25° C., 4Ig B7-H3; 25° C. flow cell temperature

Row | SMILES | Kd [nM]
1 | CCC[C@@H]1NC(=O)[C@@H](NC(=O)[C@H](Cc2ccc(O)cc2)NC(=O)[C@H](CCC(C)C)NC(C)=O)CSSC[C@@H](C(=O)N[C@@H](Cc2c[nH]c3ccc(F)cc23)C(=O)N[C@@H](Cc2ccccc2)C(=O)N[C@H](C(=O)N[C@H](CCCCNC(=O)CN2CCN(CC(=O)O)CCN(CC(=O)O)CCN(CC(=O)O)CC2)C(N)=O)[C@@H](C)O)NC(=O)[C@H](Cc2ccc(O)cc2)NC(=O)[C@H](C(C)C)NC(=O)[C@H](CC(=O)O)NC(=O)[C@H](Cc2ccc(O)cc2)NC(=O)[C@H](CCCCN)NC(=O)CNC1=O [compound 184, Ac-hLeu-Y-C-Nva-G-K-Y-D-V-Y-C-5FW-F-Thr-dLys(DOTA)-CONH2] (Ac-[hLeu]YC[Nva]GKYDVYC[Trp(5-F)]FT[dK](DOTA)-NH2; disulfide 3-11) | 1 to 10
2 | CCC[C@@H]1NC(=O)[C@H](CC(=O)O)NC(=O)[C@H](Cc2ccc(O)cc2)NC(=O)[C@H](CCCCN)NC(=O)CNC(=O)[C@H](C(C)C)NC(=O)[C@@H](NC(=O)[C@H](Cc2ccc(O)cc2)NC(=O)[C@H](CCC(C)C)NC(C)=O)CSSC[C@@H](C(=O)N[C@@H](Cc2c[nH]c3ccc(F)cc23)C(=O)N[C@@H](Cc2ccccc2)C(=O)N[C@H](C(=O)N[C@H](CCCCNC(=O)CN2CCN(CC(=O)O)CCN(CC(=O)O)CCN(CC(=O)O)CC2)C(N)=O)[C@@H](C)O)NC(=O)[C@H](Cc2ccc(O)cc2)NC1=O [compound 185, Ac-hLeu-Y-C-V-G-K-Y-D-Nva-Y-C-5FW-F-Thr-dLys(DOTA)-CONH2] (Ac-[hLeu]YCVGKYD[Nva]YC[Trp(5-F)]FT[dK](DOTA)-NH2; disulfide 3-11) | 1 to 10
3 | CCCC[C@@H]1NC(=O)[C@H](CC(=O)O)NC(=O)[C@H](Cc2ccc(O)cc2)NC(=O)[C@H](CCCCN)NC(=O)CNC(=O)[C@H](C(C)C)NC(=O)[C@@H](NC(=O)[C@H](Cc2ccc(O)cc2)NC(=O)[C@H](CCC(C)C)NC(C)=O)CSSC[C@@H](C(=O)N[C@@H](Cc2c[nH]c3ccc(F)cc23)C(=O)N[C@@H](Cc2ccccc2)C(=O)N[C@H](C(=O)N[C@H](CCCCNC(=O)CN2CCN(CC(=O)O)CCN(CC(=O)O)CCN(CC(=O)O)CC2)C(N)=O)[C@@H](C)O)NC(=O)[C@H](Cc2ccc(O)cc2)NC1=O [compound 186, Ac-hLeu-Y-C-V-G-K-Y-D-Nle-Y-C-5FW-F-Thr-dLys(DOTA)-CONH2] (Ac-[hLeu]YCVGKYD[Nle]YC[Trp(5-F)]FT[dK](DOTA)-NH2; disulfide 3-11) | 1 to 10
4 | CC(=O)N[C@@H](CCC(C)C)C(=O)N[C@@H](Cc1ccc(O)cc1)C(=O)N[C@H]1CSCSC[C@@H](C(=O)N[C@@H](Cc2c[nH]c3ccc(F)cc23)C(=O)N[C@@H](Cc2ccccc2)C(=O)N[C@H](C(=O)N[C@H](CCCCNC(=O)CN2CCN(CC(=O)O)CCN(CC(=O)O)CCN(CC(=O)O)CC2)C(N)=O)[C@@H](C)O)NC(=O)[C@H](Cc2ccc(O)cc2)NC(=O)[C@H](C(C)C)NC(=O)[C@H](CC(=O)O)NC(=O)[C@H](Cc2ccc(O)cc2)NC(=O)[C@H](CCCCN)NC(=O)CNC(=O)[C@H](C(C)C)NC1=O [compound 189, Ac-hLeu-Y-C(CH2)-V-G-K-Y-D-V-Y-C-5FW-F-Thr-dLys(DOTA)-CONH2] (Ac-[hLeu]YCVGKYDVYC[Trp(5-F)]FT[dK](DOTA)-NH2; linker 3-11 via CH2) | 100 to 300
5 | CC(=O)N[C@@H](CCC(C)C)C(=O)N[C@@H](Cc1ccc(O)cc1)C(=O)N[C@H]1CSSC[C@@H](C(=O)N[C@@H](Cc2c[nH]c3ccc(F)cc23)C(=O)N[C@@H](Cc2ccccc2)C(=O)N[C@H](C(N)=O)[C@@H](C)O)NC(=O)[C@H](Cc2ccc(OCCNC(=O)CN3CCN(CC(=O)O)CCN(CC(=O)O)CCN(CC(=O)O)CC3)cc2)NC(=O)[C@H](C(C)C)NC(=O)[C@H](CC(=O)O)NC(=O)[C@H](Cc2ccc(O)cc2)NC(=O)[C@H](CCCCN)NC(=O)CNC(=O)[C@H](C(C)C)NC1=O [compound 191, Ac-hLeu-Y-C-V-G-K-Y-D-V-AEF(DOTA)-C-5FW-F-Thr-CONH2] (Ac-[hLeu]YCVGKYDV[AEF](DOTA)C[Trp(5-F)]FT-NH2; disulfide 3-11) | 1 to 10
6 | CC(=O)N[C@@H](CCC(C)C)C(=O)N[C@@H](Cc1ccc(F)cc1)C(=O)N[C@H]1CSSC[C@@H](C(=O)N[C@@H](Cc2c[nH]c3ccc(F)cc23)C(=O)N[C@@H](Cc2ccccc2)C(=O)N[C@H](C(=O)N[C@H](CCCCNC(=O)CN2CCN(CC(=O)O)CCN(CC(=O)O)CCN(CC(=O)O)CC2)C(N)=O)[C@@H](C)O)NC(=O)[C@H](Cc2ccc(O)cc2)NC(=O)[C@H](C(C)C)NC(=O)[C@H](CC(=O)O)NC(=O)[C@H](Cc2ccc(O)cc2)NC(=O)[C@H](CCCCN)NC(=O)CNC(=O)[C@H](C(C)C)NC1=O [compound 192, Ac-hLeu-4FPhe-C-V-G-K-Y-D-V-Y-C-5FW-F-Thr-dLys(DOTA)-CONH2] (Ac-[hLeu][Phe(4-F)]CVGKYDVYC[Trp(5-F)]FT[dK](DOTA)-NH2; disulfide 3-11) | 1 to 10
7 | COc1ccc(C[C@H](NC(=O)[C@H](CCC(C)C)NC(C)=O)C(=O)N[C@H]2CSSC[C@@H](C(=O)N[C@@H](Cc3c[nH]c4ccc(F)cc34)C(=O)N[C@@H](Cc3ccccc3)C(=O)N[C@H](C(=O)N[C@H](CCCCNC(=O)CN3CCN(CC(=O)O)CCN(CC(=O)O)CCN(CC(=O)O)CC3)C(N)=O)[C@@H](C)O)NC(=O)[C@H](Cc3ccc(O)cc3)NC(=O)[C@H](C(C)C)NC(=O)[C@H](CC(=O)O)NC(=O)[C@H](Cc3ccc(O)cc3)NC(=O)[C@H](CCCCN)NC(=O)CNC(=O)[C@H](C(C)C)NC2=O)cc1 [compound 193, Ac-hLeu-OMeTyr-C-V-G-K-Y-D-V-Y-C-5FW-F-Thr-dLys(DOTA)-CONH2] (Ac-[hLeu]Y(Me)CVGKYDVYC[Trp(5-F)]FT[dK](DOTA)-NH2; disulfide 3-11) | 10 to 100
8 | CC(=O)N[C@@H](CCC(C)C)C(=O)N[C@@](C)(Cc1ccc(O)cc1)C(=O)N[C@H]1CSSC[C@@H](C(=O)N[C@@H](Cc2c[nH]c3ccc(F)cc23)C(=O)N[C@@H](Cc2ccccc2)C(=O)N[C@H](C(=O)N[C@H](CCCCNC(=O)CN2CCN(CC(=O)O)CCN(CC(=O)O)CCN(CC(=O)O)CC2)C(N)=O)[C@@H](C)O)NC(=O)[C@H](Cc2ccc(O)cc2)NC(=O)[C@H](C(C)C)NC(=O)[C@H](CC(=O)O)NC(=O)[C@H](Cc2ccc(O)cc2)NC(=O)[C@H](CCCCN)NC(=O)CNC(=O)[C@H](C(C)C)NC1=O [compound 195, Ac-hLeu-aMeTyr-C-V-G-K-Y-D-V-Y-C-5FW-F-Thr-dLys(DOTA)-CONH2] (Ac-[hLeu][αMeY]CVGKYDVYC[Trp(5-F)]FT[dK](DOTA)-NH2; disulfide 3-11) | 10 to 100
9 | CC(=O)N[C@@H](CCC(C)C)C(=O)N[C@@H](Cc1ccc(O)cc1)C(=O)N[C@H]1CSSC[C@@H](C(=O)N[C@@H](Cc2c[nH]c3ccc(F)cc23)C(=O)N[C@@H](Cc2ccccc2)C(=O)N[C@H](C(=O)N[C@H](CCCCNC(=O)CN2CCN(CC(=O)O)CCN(CC(=O)O)CCN(CC(=O)O)CC2)C(N)=O)[C@@H](C)O)NC(=O)[C@H](Cc2ccc(O)cc2)NC(=O)[C@H](C(C)C)NC(=O)[C@H](CC(=O)O)NC(=O)[C@H]([C@@H](C)O)NC(=O)[C@H](CCCCN)NC(=O)CNC(=O)[C@H](C(C)C)NC1=O [compound 198, Ac-hLeu-Y-C-V-G-K-T-D-V-Y-C-5FW-F-Thr-dLys(DOTA)-CONH2] (Ac-[hLeu]YCVGKTDVYC[Trp(5-F)]FT[dK](DOTA)-NH2; disulfide 3-11) | 1 to 10
10 | CC(=O)N[C@@H](CCC(C)C)C(=O)N[C@@H](Cc1ccc(O)cc1)C(=O)N[C@H]1CSSC[C@@H](C(=O)N[C@@H](Cc2c[nH]c3ccc(F)cc23)C(=O)N[C@@H](Cc2ccccc2)C(=O)N[C@H](C(=O)N[C@H](CCCCNC(=O)CN2CCN(CC(=O)O)CCN(CC(=O)O)CCN(CC(=O)O)CC2)C(N)=O)[C@@H](C)O)NC(=O)[C@H](Cc2ccc(O)cc2)NC(=O)[C@H](C(C)C)NC(=O)[C@H](CC(=O)O)NC(=O)[C@H](CCO)NC(=O)[C@H](CCCCN)NC(=O)CNC(=O)[C@H](C(C)C)NC1=O [compound 199, Ac-hLeu-Y-C-V-G-K-hSer-D-V-Y-C-5FW-F-Thr-dLys(DOTA)-CONH2] (Ac-[hLeu]YCVGK[hSer]DVYC[Trp(5-F)]FT[dK](DOTA)-NH2; disulfide 3-11) | 1 to 10
11 | CC(=O)N[C@@H](CCC(C)C)C(=O)N[C@@H](Cc1ccc(O)cc1)C(=O)N[C@H]1CSSC[C@@H](C(=O)N[C@@H](Cc2c[nH]c3ccc(F)cc23)C(=O)N[C@@H](Cc2ccccc2)C(=O)N[C@H](C(N)=O)C(C)(C)O)NC(=O)[C@H](Cc2ccc(O)cc2)NC(=O)[C@H](C(C)C)NC(=O)[C@H](CC(=O)O)NC(=O)[C@H](CC2CCCCC2)NC(=O)[C@H](CCCCNC(=O)CN2CCN(CC(=O)O)CCN(CC(=O)O)CCN(CC(=O)O)CC2)NC(=O)CNC(=O)[C@H](C(C)C)NC1=O [compound 201, Ac-hLeu-Y-C-V-G-Lys(DOTA)-CHA-D-V-Y-C-5FW-F-hydroxyVal-CONH2] (Ac-[hLeu]YCVGK(DOTA)[Cha]DVYC[Trp(5-F)]F[Val(3-OH)]-NH2; disulfide 3-11) | 1 to 10
12 | CC(=O)N[C@@H](CCC(C)C)C(=O)N[C@@H](Cc1ccc(O)cc1)C(=O)N[C@H]1CSSC[C@@H](C(=O)N[C@@H](Cc2c[nH]c3ccc(F)cc23)C(=O)N[C@@H](Cc2ccccc2)C(=O)N[C@H](C(N)=O)C(C)(C)O)NC(=O)[C@H](Cc2ccc(O)cc2)NC(=O)[C@H](C(C)C)NC(=O)[C@H](CC(=O)O)NC(=O)[C@H](CC2CCNCC2)NC(=O)[C@H](CCCCNC(=O)CN2CCN(CC(=O)O)CCN(CC(=O)O)CCN(CC(=O)O)CC2)NC(=O)CNC(=O)[C@H](C(C)C)NC1=O [compound 202, Ac-hLeu-Y-C-V-G-Lys(DOTA)-PipAla-D-V-Y-C-5FW-F-hydroxyVal-CONH2] (Ac-[hLeu]YCVGK(DOTA)[Ala(piperidin-4-yl)]DVYC[Trp(5-F)]F[Val(3-OH)]-NH2; disulfide 3-11) | 1 to 10
